In US20250161238A1, “NMDAR Antagonists Prevent Ageing and Aging-Associated Conditions and Diseases Through Increasing 20S Proteasome Activity” (priority 2022, published 2025):
Structures can show the parent of a compound that is named as a salt. Where two headings read alike, the source gives them in different places. Peptide text beside a SMILES is read from it. * marks the point of attachment. Cbz = O=C(OCc1ccccc1)*

Key:
[1] = biological target: T1, proteasome (Homo sapiens, UniProt P28072+P28074+Q99436); assay: In-Cell Fluorogenic Proteasome Assay, HepG2; type: cell-based; parameters: endogenous in cells; host or cells: HepG2 (A9), T98G (A10), digitonin/Tween-permeabilised whole cells; settings: for trypsin, chemotrypsin and caspase-like proteasome activities: whole HepG2 cell
T1 sequence (P28074 60-263): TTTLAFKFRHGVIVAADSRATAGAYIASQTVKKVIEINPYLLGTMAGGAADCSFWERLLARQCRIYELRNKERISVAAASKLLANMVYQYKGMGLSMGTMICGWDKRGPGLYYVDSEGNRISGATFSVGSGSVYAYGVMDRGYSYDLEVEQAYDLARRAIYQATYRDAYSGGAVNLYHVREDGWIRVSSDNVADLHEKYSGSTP
T1 sequence (Q99436 44-277): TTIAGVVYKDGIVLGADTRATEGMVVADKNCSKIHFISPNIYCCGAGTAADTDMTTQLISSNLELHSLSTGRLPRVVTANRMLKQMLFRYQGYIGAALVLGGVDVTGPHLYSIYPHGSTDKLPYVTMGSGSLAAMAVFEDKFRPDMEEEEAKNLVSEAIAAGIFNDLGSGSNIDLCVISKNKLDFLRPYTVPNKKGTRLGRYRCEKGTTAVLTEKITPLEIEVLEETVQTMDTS
T1 sequence (P28072 1-239): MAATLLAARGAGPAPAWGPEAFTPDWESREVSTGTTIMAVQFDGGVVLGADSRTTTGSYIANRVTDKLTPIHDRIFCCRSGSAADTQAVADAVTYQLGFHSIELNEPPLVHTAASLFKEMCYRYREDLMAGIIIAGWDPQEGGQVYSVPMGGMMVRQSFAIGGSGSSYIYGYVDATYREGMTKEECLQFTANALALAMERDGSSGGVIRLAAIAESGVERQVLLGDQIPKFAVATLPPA
Protocol: (§1) For a 96-well plate format, 8×10^3 cells per well were seeded. 24 hours later medium was changed with NMDAR blocker containing medium. Two hours later 100 μl of 2× flourescence cell buffer: (1 ml 1M tris hcl ph: 7.5, 500 μl 1M KCL, 200 μl […], 200 μl 0.1M MgCL2, 50 μl % 0.2 tween 20, 75 μl digitonin 20 mg/ml in DMSO ChemCruz cat no: sc-280675, 10 μl flourescence substrates including Suc-LLVY-AMC, Z-LLE-AMC, and Ac-RLR-AMC Ac-RLR-AMC, 8.1 ml H2O). After incubation at room temperature for a 5 minutes the flourescence of each sample were measured in a flourescence spectrometer (Biotek instrument-Synergy HT).

[2] = tested on: p21-GFP fusion protein; assay: p21-GFP fusion protein amount in cells; type: cell-based, human
[3] = tested on: Ub-YFP; assay: Ub-YFP degredation in Hep3B cells; type: cell-based, human
Protocol: This finding was supported by the following experiments; First, a model was developed to find inhibitor or inhibitors for the ubiquitin dependent degredation in the Hep3B cell line. For this purpose Hep3B cell expressing Ub-YFP genome were prepared. Ub-YFP is a system which was used to detect the ubiquitin dependent proteasome activity (26S). It is also known that Ub-YFP is not affected by the ubiquitin-independent protesome system. In further experiments, we tested molecules which are involved in different parts of the ubiquitination processes including PYR41 (Ubiquitin-activating enzyme (E1) inhibitor), NCC697923 (UBE2N E2 ubiquitin-conjugating enzyme inhibitor), SMER3 (ubiquitin ligase E3 inhibitor), SZL-P1-411 (Skp2 E3 ligase inhibitor), SKPIN C1 (Skp2 E3 ligase inhibitor), P005091 (USP7 inhibitor), Vialin A (USP4 and USP5 inhibitor), Spautin A (USP10 and USP13 inhibitor), ML 323 (USP1-UAF1 inhibitor), IU1 (USP14 inhibitor), and Mg132 (protesome inhibitor) for the inhibition of Ub-YFP degredation. […] MG132 was used as the inhibitor of the protesome activity (FIG. 12A). In the next experiment YFP protein amount was investigated in the presence of ketamin, Pyr41, and ketamin and Pyr41 together by western blot in Hep3B cell.
The Ub-R-YFP open-reading frame was obtained from Ub-R-YFP was a gift from Nico Dantuma (Addgene plasmid #11948). Ub-R-YFP sequence was obtained from the original vector by cutting the plasmid with NheI and NotI enzymes (Thermo Scientific), blunt ended and was cloned into pBSK-clo2D which is cut by EcoRV restriction enzyme (SibEnzyme, E059). Ub-R-YFP was obtained from the pBSK-clo2D vector by cutting with BamHI. pLV-EF1a-IRES-Puro (85132-Addgene) vector was cut by BamHI restriction enzyme and dephospharylated and ligated with Ub-R-YFP. After the orientation construct was determined, pLV-EF1a-IRES-Puro-Ub-R-YFP was reproduced in large volumes using DH5a E. Coli.
Hek293T cells were transfected with the pLV-EF1a-IRES-Puro-Ub-R-YFP and helper vectors psPAX2 and pMD2.G using Calcium Phosphate Mammalian Transfection Kit (631312-Takara bio). After 48 h supernatants containing Ub-R-YFP lentivirus were collected and target cells were infected under the presence of […] polybrene. After 24 hours, the media of the cells were replaced with media containing […] puromycin for 6 days. Then living cells were combined in a pool. Infected clones were maintained in the presence of 250 ng/ml puromycin.

[4] = biological target: T1, proteasome; assay: In-Cell Fluorogenic Proteasome Assay, T98G; type: cell-based; parameters: endogenous in cells; host or cells: T98G (A10), digitonin/Tween-permeabilised whole cells; settings: whole T98G cell
Protocol: as §1

[5] = tested on: mice with GD symptoms; settings: A/J, C3H/HeJ, DBA/2J, C57BL6/JolaHsd, CBE 25 mg/kg day, cited from earlier work

## CN1C(=O)[C@]23CC4=CC=C[C@H](O)[C@H]4N2C(=O)[C@@]1(CO)SS3 [Gliotoxin]
[1]; 5 uM, compared to control
  chemotrypsin activity of proteasome at low dose of Gliotoxin: not statistically changed
[1]; 25 uM, in the presence of NMDR blockers
  chemotrypsin activity of proteasome at high dose of gliotoxin: inhibited

## CCOC(=O)c1ccc(N2NC(=O)/C(=C/c3ccc([N+](=O)[O-])o3)C2=O)cc1 [PYR41]
[2]
  p21-GFP fusion protein / GFP amount: increase
[3]; Hep3B expressing Ub-YFP
  Ub-YFP degredation: inhibits
[3]; Hep3B, western blot
  YFP protein amount: increase

## C[C@]12N[C@H](Cc3ccccc31)c1ccccc12 [MK801, (5S,10R)-(+)-5-Methyl-10,11-dihydro-5H dibenzo [a,d]cyclobepten-5,10-imine maleate]
[4]
  trypsin, chemotrypsin and caspase-like proteasome activities: increased
[1]
  trypsin, chemotrypsin and caspase-like proteasome activities: increased
[5]
  life span of mice with Gaucher disease symptoms: dramatically extended
[5]; listed as MK-801
  life span of mice with Gaucher disease symptoms: increase

## OO [H2O2]
[2]
  GFP signal of p21-GFP: increased the GFP signal dramatically

## CC(C)C[C@@H](C=O)NC(=O)[C@H](CC(C)C)NC(=O)[C@H](CC(C)C)NC(=O)OCc1ccccc1 [Mg132] (Cbz-Leu-Leu-Leu-aldehyde)
[1]; whole cell, HepG2, T98G and Hep3B
  trypsin activity of proteasome: did not inhibit
[1]; whole cell, substance alone
  chemotrypsin activity of proteasome: inhibits

## Cc1cc(C(=O)CN2CCCC2)c(C)n1-c1ccc(F)cc1 [IU1]
[1]
  trypsin, chemotrypsin and caspase-like proteasome activities: increases
